Source: patent publication US5681832A, “Aroylaniline compounds, pharmaceutical compositions, and methods of using same to inhibit viral activity” (priority 1995, dated 1997)
Where a name gives a salt, the structure may show the parent alone.

Legend:
HIV-1 = assay: in vitro anti-HIV screening (NCI XTT soluble-formazan assay, protection of HIV-1-infected CEM T4 lymphocytes from cytolysis); format: cell-based; details: for EC50: 144 h, HIV-1-infected CEM cells, 6 days, approximate values, read-out: EC50 (Molar), 50% effective concentration; for TI50 (IC/EC), therapeutic index: IC50/EC50; for Conclusion: NCI anti-HIV screen
From the text: The aroylaniline compounds of the present invention were subjected to in vitro screening to determine their anti-HIV activity.
The National Cancer Institute's procedure for testing for agents active against Human Immunodeficiency Virus (HIV) (Weislow, O. W. et al., "New soluble-formazan assay for HIV-1 cytopathic effects: application to high-flux screening of synthetic and natural products for AIDS-antiviral activity," J. Natl Cancer Inst., 81, 577-586 (1989)) is designed to detect agents acting at any stage of the virus reproductive cycle. The assay includes the killing of T4 lymphocytes by HIV. Pursuant to the test, small amounts of HIV are added to cells, and a complete cycle of virus reproduction is necessary to obtain the required cell killing. Agents that interact with virions, cells, or virus gene-products to interfere with viral activities will protect cells from cytolysis. The system is thus designed to detect anti-HIV activity. However, compounds that are chemically labile or are rapidly metabolized in the culture conditions may not show activity in this screen. All tests are compared with at least one positive (e.g., AZT-treated) control done at the same time under identical conditions.
(§1) 1. Candidate agent is dissolved in dimethyl sulfoxide (unless otherwise instructed) and then diluted 1:100 in cell culture medium before preparing serial half-log10 dilutions which are then to 96-well microfilter plates. T4 lymphocytes (CEM cell line) are added, and after a brief interval HIV-1 is added to all wells, resulting in a 1:200 final dilution […]. Uninfected cells with the compound serve as a toxicity control, and infected and uninfected cells without the compound serve as basic controls.
(§2) 2. Cultures are incubated at 37° C. in a 5% carbon dioxide atmosphere for 6 days.
(§3) 3. The tetrazolium salt, XTT, is added to all wells, and cultures are incubated to allow formazan color development by viable cells.
(§4) 4. Individual wells are analyzed spectrophotometrically to quantitate formazan production, and in addition are viewed microscopically for detection of viable cells and confirmation of protective activity.
(§5) 5. Drug-tested virus-infected cells are compared with drug-treated noninfected cells and with other appropriate controls (untreated infected and untreated noninfected cells, drug-containing wells without cells, etc.) on the same plate.
6. Data are reviewed in comparison with other tests done at the same time and a determination about activity is made.
The aroylaniline compounds of the present invention were tested for anti-HIV activity according to the above procedure. FIGS. 1-6 represent test results of the aroylaniline compounds of Compounds 1, 3, 13, 14, 29 and 32.
(§6) FIGS. 1 to 6 display a plot of the log10 of the concentrations (as μg/mL or molar as shown) of the aroylaniline compounds, Compounds 1, 3, 13, 14, 29 and 32, against the measured test values expressed as a percentage of the uninfected, untreated control values. The solid line depicts the percentage of surviving HIV-infected cells treated with sample (at the indicated concentration) relative to uninfected, untreated controls. Thus, the solid line expresses the anti-HIV activity of the compound. The dashed line depicts the percentage of surviving uninfected cells treated with the compound relative to the same uninfected, untreated controls. Thus, the dashed line expresses the growth inhibitory properties of the compound. The viral cytopathic effect […] is indicated by a dotted reference line. […] Survival values of this parameter less than 50% are considered acceptable in the current protocol. Approximate values for 50% effective concentration (EC50) have been calculated for each test and are set forth for these Compounds in Tables 2-7, respectively.

[1] = test system: T4 lymphocytes (CEM cell line); assay: toxicity control: survival of uninfected T4 lymphocytes (CEM cell line) treated with compound (growth inhibition); format: cell-based; details: Homo sapiens, CCRF-CEM; for IC50: 144 h, uninfected CEM cells, 6 days, read-out: IC50 (Molar)
Protocol: as §1, §2, §3, §4, §5, §6

[2] = Human immunodeficiency virus 1, CCRF-CEM

In the case of `O=C(Nc1ccc(C=Cc2ccc(NC(=O)c3cc(S(=O)(=O)O)c4cccnc4c3O)cc2S(=O)(=O)O)c(S(=O)(=O)O)c1)c1cc(S(=O)(=O)O)c2cccnc2c1O` [Compound 1, 4,4'-di(8-hydroxy-5-sulfo-7-quinolinecarboxyamido)stilbene-2,2'disulfonic acid tetrasodium salt], the EC50 (HIV-1; [2]) is reported as 1.44 µM, the inhibition at 200 µM (HIV-1; Human immunodeficiency virus 1, CCRF-CEM, 2.00 × 10^-4 Molar, read-out: Percent of Protection) is reported as -26% and the inhibition at 20 µM (HIV-1; Human immunodeficiency virus 1, CCRF-CEM, 2.00 × 10^-5 Molar, read-out: Percent of Protection) is reported as 107%. The inhibition at 2 µM (HIV-1; Human immunodeficiency virus 1, CCRF-CEM, 2.00 × 10^-6 Molar, read-out: Percent of Protection) was 68.6%, the inhibition at 0.2 µM (HIV-1; Human immunodeficiency virus 1, CCRF-CEM, 2.00 × 10^-7 Molar, read-out: Percent of Protection) was 5.09% and the inhibition at 63.2 µM (HIV-1; Human immunodeficiency virus 1, CCRF-CEM, 6.32 × 10^-5 Molar, read-out: Percent of Protection) was 85.6%. The inhibition at 6.33 µM (HIV-1; Human immunodeficiency virus 1, CCRF-CEM, 6.33 × 10^-6 Molar, read-out: Percent of Protection) was 121%, the inhibition at 0.634 µM (HIV-1; Human immunodeficiency virus 1, CCRF-CEM, 6.34 × 10^-7 Molar, read-out: Percent of Protection) was 3.41% and the inhibition at 0.0635 µM (HIV-1; Human immunodeficiency virus 1, CCRF-CEM, 6.35 × 10^-8 Molar, read-out: Percent of Protection) was -5.09%. The activity at 200 µM (HIV-1; Human immunodeficiency virus 1, CEM-T4, 2.00 × 10^-4 Molar, read-out: Percent of Control, Infected) was 4.26%, the activity at 20 µM (HIV-1; Human immunodeficiency virus 1, CEM-T4, 2.00 × 10^-5 Molar, read-out: Percent of Control, Infected) was 105% and the activity at 2 µM (HIV-1; Human immunodeficiency virus 1, CEM-T4, 2.00 × 10^-6 Molar, read-out: Percent of Control, Infected) was 76.2%. It also gave an activity at 0.2 µM (HIV-1; Human immunodeficiency virus 1, CEM-T4, 2.00 × 10^-7 Molar, read-out: Percent of Control, Infected) of 27.9%, an activity at 63.2 µM (HIV-1; Human immunodeficiency virus 1, CEM-T4, 6.32 × 10^-5 Molar, read-out: Percent of Control, Infected) of 89.1% and an activity at 6.33 µM (HIV-1; Human immunodeficiency virus 1, CEM-T4, 6.33 × 10^-6 Molar, read-out: Percent of Control, Infected) of 116%. The activity at 0.634 µM (HIV-1; Human immunodeficiency virus 1, CEM-T4, 6.34 × 10^-7 Molar, read-out: Percent of Control, Infected) was 26.6%, the activity at 0.0635 µM (HIV-1; Human immunodeficiency virus 1, CEM-T4, 6.35 × 10^-8 Molar, read-out: Percent of Control, Infected) was 20.1% and the “TI50 (IC/EC), therapeutic index” value (HIV-1) was 8.28 × 10^+1. For the same compound, the Conclusion (HIV-1) was “CONFIRMED ACTIVE”, the IC50 [1] was 120 µM and the activity at 200 µM ([1]; 2.00 × 10^-4 Molar, read-out: Percent of Control, Uninfected) was 6.47%. For the same compound, the activity at 20 µM ([1]; 2.00 × 10^-5 Molar, read-out: Percent of Control, Uninfected) was 109%, the activity at 2 µM ([1]; 2.00 × 10^-6 Molar, read-out: Percent of Control, Uninfected) was 106% and the activity at 0.2 µM ([1]; 2.00 × 10^-7 Molar, read-out: Percent of Control, Uninfected) was 102%. It also gave an activity at 63.2 µM ([1]; 6.32 × 10^-5 Molar, read-out: Percent of Control, Uninfected) of 104%, an activity at 6.33 µM ([1]; 6.33 × 10^-6 Molar, read-out: Percent of Control, Uninfected) of 117% and an activity at 0.634 µM ([1]; 6.34 × 10^-7 Molar, read-out: Percent of Control, Uninfected) of 105%. It also gave an activity at 0.0635 µM ([1]; 6.35 × 10^-8 Molar, read-out: Percent of Control, Uninfected) of 97.6%.

In the case of `O=C(Nc1ccc(/C=C/c2ccc(NC(=O)c3cc(S(=O)(=O)O)c4cccnc4c3O)cc2S(=O)(=O)O)c(S(=O)(=O)O)c1)Nc1ccc(/C=C/c2ccc(NC(=O)c3cc(S(=O)(=O)O)c4cccnc4c3O)cc2S(=O)(=O)O)c(S(=O)(=O)O)c1` [Compound 3, 1,3-di[2,2'-disulfo-4(8-hydroxy-5-sulfo-7-quinoline)]stilbene urea, hexasodium salt], the EC50 (HIV-1; [2]) is reported as 4.06 µM, the inhibition at 15.8 µM (HIV-1; Human immunodeficiency virus 1, CCRF-CEM, 1.58 × 10^-5 Molar, read-out: Percent of Protection) is reported as 92.9% and the inhibition at 1.58 µM (HIV-1; Human immunodeficiency virus 1, CCRF-CEM, 1.58 × 10^-6 Molar, read-out: Percent of Protection) is reported as 0.19%. For the same compound, the inhibition at 0.158 µM (HIV-1; Human immunodeficiency virus 1, CCRF-CEM, 1.58 × 10^-7 Molar, read-out: Percent of Protection) was -1.29%, the inhibition at 0.0158 µM (HIV-1; Human immunodeficiency virus 1, CCRF-CEM, 1.58 × 10^-8 Molar, read-out: Percent of Protection) was 0.19% and the inhibition at 50 µM (HIV-1; Human immunodeficiency virus 1, CCRF-CEM, 5.00 × 10^-5 Molar, read-out: Percent of Protection) was 90.8%. For the same compound, the inhibition at 5 µM (HIV-1; Human immunodeficiency virus 1, CCRF-CEM, 5.00 × 10^-6 Molar, read-out: Percent of Protection) was 61.1%, the inhibition at 0.501 µM (HIV-1; Human immunodeficiency virus 1, CCRF-CEM, 5.01 × 10^-7 Molar, read-out: Percent of Protection) was 2% and the inhibition at 0.0502 µM (HIV-1; Human immunodeficiency virus 1, CCRF-CEM, 5.02 × 10^-8 Molar, read-out: Percent of Protection) was 0.51%. The activity at 15.8 µM (HIV-1; Human immunodeficiency virus 1, CEM-T4, 1.58 × 10^-5 Molar, read-out: Percent of Control, Infected) was 93.2%, the activity at 1.58 µM (HIV-1; Human immunodeficiency virus 1, CEM-T4, 1.58 × 10^-6 Molar, read-out: Percent of Control, Infected) was 4.18% and the activity at 0.158 µM (HIV-1; Human immunodeficiency virus 1, CEM-T4, 1.58 × 10^-7 Molar, read-out: Percent of Control, Infected) was 2.76%. It also gave an activity at 0.0158 µM (HIV-1; Human immunodeficiency virus 1, CEM-T4, 1.58 × 10^-8 Molar, read-out: Percent of Control, Infected) of 4.18%, an activity at 50 µM (HIV-1; Human immunodeficiency virus 1, CEM-T4, 5.00 × 10^-5 Molar, read-out: Percent of Control, Infected) of 91.1% and an activity at 5 µM (HIV-1; Human immunodeficiency virus 1, CEM-T4, 5.00 × 10^-6 Molar, read-out: Percent of Control, Infected) of 62.7%. For the same compound, the activity at 0.501 µM (HIV-1; Human immunodeficiency virus 1, CEM-T4, 5.01 × 10^-7 Molar, read-out: Percent of Control, Infected) was 5.92%, the activity at 0.0502 µM (HIV-1; Human immunodeficiency virus 1, CEM-T4, 5.02 × 10^-8 Molar, read-out: Percent of Control, Infected) was 4.49% and the “TI50 (IC/EC), therapeutic index” value (HIV-1) was > 1.23 × 10^+1. For the same compound, the Conclusion (HIV-1) was “CONFIRMED ACTIVE”, the IC50 [1] was > 50 µM and the activity at 15.8 µM ([1]; 1.58 × 10^-5 Molar, read-out: Percent of Control, Uninfected) was 103%. For the same compound, the activity at 1.58 µM ([1]; 1.58 × 10^-6 Molar, read-out: Percent of Control, Uninfected) was 95.7%, the activity at 0.158 µM ([1]; 1.58 × 10^-7 Molar, read-out: Percent of Control, Uninfected) was 94.4% and the activity at 0.0158 µM ([1]; 1.58 × 10^-8 Molar, read-out: Percent of Control, Uninfected) was 111%. It also gave an activity at 50 µM ([1]; 5.00 × 10^-5 Molar, read-out: Percent of Control, Uninfected) of 98%, an activity at 5 µM ([1]; 5.00 × 10^-6 Molar, read-out: Percent of Control, Uninfected) of 97% and an activity at 0.501 µM ([1]; 5.01 × 10^-7 Molar, read-out: Percent of Control, Uninfected) of 97.7%. The activity at 0.0502 µM ([1]; 5.02 × 10^-8 Molar, read-out: Percent of Control, Uninfected) was 95.8%.
